Assay results from US9730906B2, “α-derivatives of cis-monounsaturated fatty acids for use as medicines” (UNIVERSITAT DE LES ILLES BALEARS, priority 2008, dated 2017).

Experiments:
A549 cells = experiment: Growth/viability of A549 lung cancer cells in culture (cell count); format: cell-based, human; conditions: for tumour cell growth (number of cells, percent of untreated): 150 μM, 48 hours, A549; for IC50: concentration that reduces the number of cells to half
Experimental: FIG. 3A. Cancer cells (A549) were treated with various concentrations of OHOD and MOD11 to determine whether the effect was dependent on the concentration. […] These cells were treated with different concentrations (0-400 μM) of OHOD and MOD11 and the number of cells was determined by flow cytometry.
FIG. 3B. Cancer cells (A549) were treated with compounds indicated on the horizontal axis for 48 hours at 150 μM. Then, the cells were counted and their number and percent of untreated (control) represented on the vertical axis.
Also, a series of α-derivatives of cis-monounsaturated fatty acids were used to investigate their effectiveness in cancer treatment. Two types of experiment were performed. Firstly, the dependency of the anti-tumour effect on concentration was investigated. To perform these experiments, human lung cancer cells (A549) were cultivated in RPMI medium, supplemented with 10% foetal bovine […], 10 mM Hepes (pH 7.4), 2 mM glutamine, 2 g/l bicarbonate, 1 g/l glucose, 100 units/ml penicillin, 0.1 mg/ml streptomycin, 0.25 μg/ml Amphotericin B, at 37° C. and in the presence of 5% CO2. In a first experimental series, these cells were treated with various concentrations (0-400 μM) of OHOD and MOD11 and the number of cells was determined by flow cytometry (FIG. 3A). […] In a second series, the anti-tumour effectiveness on A549 lung cancer cells was investigated at a single concentration (150 μM) and a time of 48 hours (FIG. 3B). […] Obviously, among the previous molecules, some lacked both modifications on the α-carbon and the double bond in cis configuration (EO, HDO, ODO) and had no therapeutic effect. […]

[1] = Rat obesity induced by cafeteria diet, preventative pre-treatment (Table 3); format: in vivo, Wistar Kyoto rats; conditions: 300 mg/kg oral, after two weeks on cafeteria diet; obese control 308 ± 17, lean control 280 ± 16; * lower than obese controls, ‡ indistinguishable
Experimental: (§1) In a further experiment, the effect of various molecules at a single dose (600 mg/kg) was investigated. […] In this sense, modification on the α-carbon and the double bond in cis configuration are crucial elements for producing the therapeutic effect indicated above. […] Finally, the effect of α-derivatives of cis-monounsaturated fatty acids on the prevention of obesity was investigated. For this, a model of rat obesity induced by a cafeteria diet, where the hypercaloric food increases the weight of the animals very markedly, was used. There were various experimental groups (see Table 3), each of which consisted of 6 female Wistar Kyoto rats of 250-300 g in weight. All the animals received a standard diet for 2 weeks. In addition, 2 of the groups received an oral preventative pre-treatment of vehicle and the other groups received 300 mg/kg of the fatty acids indicated below. Afterwards, one of the control groups was maintained on a standard diet (lean control) and the other was fed on a cafeteria diet (obese control). The treated animal groups were fed on the cafeteria diet. Preventative pre-treatment was maintained for all the groups. After two weeks on these diets, the lean control group had increased their body weight by an average of 16±16 g, while the obese control group had increased their body weight by an average of 43±17 g (statistically significance difference, p<0.01).
(§2) The weight of treated animals was statistically less than the weight of obese control rats and statistically indistinguishable from that of lean control rats.

SF767 human tumour cells = experiment: Growth of SF767 tumour cells in culture; format: cell-based; conditions: concentration that reduces the number of cells to half
Experimental: In a second experimental series, designed to discover whether these molecules are effective in treatment of different types of tumours, the effect of OHOD at various concentrations on human cells of different types of cancer was studied. These experiments were performed as described before, except that the M220 and HT-29 cell lines were cultured in DMEM medium and the MDA-MB-231 line was incubated in Leibowitz L-15 medium supplemented with 15% foetal bovine […]. […] Where the nature of the tumour process requires, application can be topical (use on the skin of active products for the treatment of melanoma and other cutaneous abnormalities of cancerous nature), which can be considered as cosmetic treatments when attempts are made to correct aesthetic defects.

hypertensive rats = experiment: Arterial pressure in hypertensive rats after 8-day treatment (Table 5); format: in vivo, rat; conditions: arterial pressure, hypertensive rats, 8-day treatment, 400 mg/kg oral
[2] = Levels of cholesterol, triglycerides and glucose in rats after oral treatment; format: in vivo, rat; conditions: rats, daily dose of 600 mg/kg oral; untreated controls = 100%
Experimental: FIG. 13. The four bars, from left to right respectively, show the effect of treatments with vehicle (control, first bar), OHOD at 200 mg/kg (second bar), OHOD at 400 mg/kg (third bar) and OHOD at 600 mg/kg (fourth bar) on the cholesterol levels (group of four bars to the left), triglycerides (group of four bars in the middle) and glucose (group of four bars to the right). The treatments were oral in all cases and were maintained for 30 days. The values indicated are the average obtained in 6 animals per group.
FIG. 14. Effect of treatment with vehicle (control) or with the fatty acids of the invention (600 mg/kg) on the levels of cholesterol, triglycerides and glucose. The values indicated are the average of the values obtained in 6 animals. Each group of three bars represents treatment with a different fatty acid with the left bar corresponding to cholesterol, the middle bar to triglycerides and the right bar to glucose.
Metabolic diseases form a set of pathologies characterised by the accumulation or deficit of certain molecules (cholesterol, triglycerides, glucose, etc.) in the serum or tissues. These changes are the reflection of dysfunctions that are normally associated with errors in the activity of certain enzymes or in the control of these proteins. Among the most important metabolopathies are hypercholesterolemia (elevated levels of cholesterol), hypertriglyceridemia (elevated levels of triglycerides) and diabetes (elevated levels of glucose). These pathologies have high rates of incidence, morbidity and mortality, so that treatment is a first order necessity. […] For these experiments, the dose of fatty acid indicated (0, 200, 400 and 600 mg/kg) was supplied daily via the oral route. At the end of the treatment (30 days), blood was sampled from control and treated animals (n=6) and the levels of cholesterol, triglycerides and glucose were determined using standard colorimetric methods.
as §1

[3] = Body weight of rats on cafeteria diet, no pre-treatment (Table 5); format: in vivo, rat; conditions: cafeteria diet for 2 weeks, 300 mg/kg daily oral, no pre-treatment
Source text: as §2

Row | IC50 (A549 cells) | IC50 (SF767 human tumour cells) | Compound | tumour cell growth (number of cells, percent of untreated) (A549 cells) | Final weight [1] | PA (control 214 mmHg) (hypertensive rats) | % control CHO (cholesterol) [2] | % control TG (triglycerides) [2] | Body weight (g) (control = 311 g) [3]
1 | 94 µM | 107 µM | CCCCCCCC/C=C\CCCCCCC(O)C(=O)OC (centres unmarked) [OMe-OHOD] |  |  | 155 mmHg | 71 % control | 64 % control | 299 g
2 | 79 µM | 68 µM | CCCCCCCCC=CCCCCCCC(O)C(=O)OCC (centres unmarked) [EE-OHOD] |  |  | 161 mmHg | 62 % control | 47 % control | 295 g
3 | 246 µM | 214 µM | CCCCCCCC/C=C\CCCCCCC(OC(C)=O)C(=O)OC (centres unmarked) [OMe- ACOD] |  |  | 152 mmHg | 86 % control | 74 % control | 296 g
4 | 168 µM | 195 µM | CCCCCCCC/C=C\CCCCCCC(OC)C(=O)OCC (centres unmarked) [EE-MOOD] |  |  | 154 mmHg | 64 % control | 66 % control | 297 g
5 | 149 µM | 128 µM | CCCCCCCC/C=C\CCCCCCC(OC)C(=O)OC (centres unmarked) [OMe-MOOD] |  |  | 143 mmHg | 77 % control | 69 % control | 296 g

Continued, compound first:

Row | Compound | IC50 (A549 cells) | IC50 (SF767 human tumour cells) | tumour cell growth (number of cells, percent of untreated) (A549 cells) | Final weight [1] | PA (control 214 mmHg) (hypertensive rats) | % control CHO (cholesterol) [2] | % control TG (triglycerides) [2] | Body weight (g) (control = 311 g) [3]
6 | Cis-Docosenoic [DE, reference compound] |  |  | did not show anti-tumour effectiveness | 305 ± 12‡ g |  |  |  | 
7 | CCCCCCCC/C=C\CCCCCCC(OP(=O)(OCC)OCC)C(=O)[O-].[Na+] (centres unmarked) [Na-DEPOD] | 32 µM | 104 µM |  |  | 159 mmHg | 45 % control | 37 % control | 298 g
8 | CCCCCCCC/C=C/CCCCCCCC(=O)O [OD, Trans-Octadecenoic, reference compound] |  |  | did not show anti-tumour effectiveness | 311 ± 17‡ g |  |  |  | 
9 | CCCCCCCCCCCCCCCCCC(=O)O [ODO, Octadecanoic, reference compound] |  |  | did not show anti-tumour effectiveness | 301 ± 18‡ g |  |  |  | 
10 | CCCCCCCC/C=C\CCCCCCC(OP(=O)(OCC)OCC)C(=O)OCC (centres unmarked) [EE-DEPOD] | 77 µM | 82 µM |  |  | 168 mmHg | 69 % control | 49 % control | 295 g
11 | CCCCCCCC/C=C/CCCCCCC(O)C(=O)O (stereo not drawn) [tOHOD, α-Hydroxy-trans-octadecenoic, reference compound] |  |  | lacked anti-tumour effectiveness | 312 ± 19‡ g |  |  |  | 
